# Measured values taken from patent US20260250640A1, “NOVEL COMPOSITIONS AND THEIR USE TO INCREASE MOTILITY, VIABILITY AND LIFESPAN OF SPERM CELLS AND FERTILITY” (IMV TECHNOLOGIES, priority 2023, published 2026).
# Tested on: bull semen
# Description: • a 2.4 mM BaCl2 solution in OptiXcell was prepared, • 1 mL of this solution was resuspended in a 5 mg vial of DMNP-EDTA, • 1.5 mL of DMNP-EDTA were added for a final DMNP-EDTA concentration of 2.6 mM, • The solution was kept away from light, • The solution was contacted with semen in different chelator/semen ratios: • 1:1=>500 μL chelators+500 μL bull semen at 57 Mspz/mL • 1:0.75=>500 μL chelators+375 μL bull semen at 57 Mspz/mL • 1:0.5=>500 μL chelators+250 μL bull semen at 57 Mspz/mL • 1:0.25=>500 μL chelators+125 μL bull semen at 57 Mspz/mL • A BaCl2 solution only: 500 μL BaCl2 at 2.4 mM+500 μL bull semen at 57 Mspz/mL was prepared • The following analyses have been performed on frozen bull semen: • Mobility analysis on IVOS II™ at T=0 and T3H 37° C., • Acrosome integrity analysis on EasyCyte at T=0 and T3H 37° C., • Viability analysis on EasyCyte at T=0 and T3H 37° C. • Mitochondrial activity analysis on EasyCyte at T=0 and T3H 37° C.
# The control corresponds to OptiXcell alone.
SMILES,sperm viability (T=3H 37° C.),impact on viability,"sperm viability, difference vs. Control","impact on mobility (T0 and T3H 37° C., conclusion)","sperm motility, difference vs control (OptiXcell alone) (T=3H 37° C., 1/1 chelator/semen)","sperm motility (presence of chelator (BaCl2/DMNP-EDTA solution in OptiXcell), T=0 and T3H 37° C.)"
[Ba+2].[Cl-].[Cl-] [BaCl2],remained unchanged,,,,,
"COc1cc(C(CN(CC(=O)O)CC(=O)O)N(CC(=O)O)CC(=O)O)c([N+](=O)[O-])cc1OC (stereo not drawn) [chelator, DMNP-EDTA]",,No major impact,+13 pts,No major impact,+9 pts,not affected
